From the supplement of paper PMC10307832

What was measured:
Assay in all cases: relative viability (nuclei count vs DMSO), 5 days (fraction); higher = more cells survive
Carboplatin + Luminespib = compound: C1CC(C1)(C(=O)O)C(=O)O.[NH2-].[NH2-].[Pt+2] [Carboplatin] + CCNC(=O)c1noc(-c2cc(C(C)C)c(O)cc2O)c1-c1ccc(CN2CCOCC2)cc1 [Luminespib] (partner 0.01 µM)
How it was run: (§1)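 Five library-drug doses in √10 steps were combined with a fixed anchor-drug dose, or a single drug was given alone, by pin tool to lung cancer cell lines in 1536-well plates the day after seeding. Nuclei were stained and counted after 5 days. Relative viability is the nuclei count in treated wells over that in vehicle wells, taken as the median of duplicate plates.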

MLN4924 + Vorinostat = compound: NS(=O)(=O)OC[C@@H]1C[C@@H](n2ccc3c(N[C@H]4CCc5ccccc54)ncnc32)C[C@@H]1O [MLN4924] + O=C(CCCCCCC(=O)Nc1ccccc1)NO [Vorinostat] (partner 1 µM)
How it was run: as §1

GSK126 + Vorinostat = compound: CC[C@H](C)N1C=C(C2=C(C=C(C=C21)C3=CN=C(C=C3)N4CCNCC4)C(=O)NCC5=C(C=C(NC5=O)C)C)C [GSK126] + O=C(CCCCCCC(=O)Nc1ccccc1)NO [Vorinostat] (partner 1 µM)
How it was run: as §1

MLN4924 + Pictilisib = compound: NS(=O)(=O)OC[C@@H]1C[C@@H](n2ccc3c(N[C@H]4CCc5ccccc54)ncnc32)C[C@@H]1O [MLN4924] + CS(=O)(=O)N1CCN(Cc2cc3nc(-c4cccc5[nH]ncc45)nc(N4CCOCC4)c3s2)CC1 [Pictilisib] (partner 1 µM)
How it was run: as §1

Row | Cell Line | relative viability (Carboplatin + Luminespib; first compound 0.08 µM) | relative viability (Carboplatin + Luminespib; first compound 0.253 µM) | relative viability (Carboplatin + Luminespib; first compound 0.8 µM) | relative viability (Carboplatin + Luminespib; first compound 2.53 µM) | relative viability (Carboplatin + Luminespib; first compound 8 µM) | relative viability (MLN4924 + Vorinostat; first compound 0.04 µM) | relative viability (MLN4924 + Vorinostat; first compound 0.1265 µM) | relative viability (MLN4924 + Vorinostat; first compound 0.4 µM) | relative viability (MLN4924 + Vorinostat; first compound 1.265 µM) | relative viability (MLN4924 + Vorinostat; first compound 4 µM) | relative viability (GSK126 + Vorinostat; first compound 0.08 µM) | relative viability (GSK126 + Vorinostat; first compound 0.253 µM) | relative viability (GSK126 + Vorinostat; first compound 0.8 µM) | relative viability (GSK126 + Vorinostat; first compound 2.53 µM) | relative viability (GSK126 + Vorinostat; first compound 8 µM) | relative viability (MLN4924 + Pictilisib; first compound 0.04 µM) | relative viability (MLN4924 + Pictilisib; first compound 0.1265 µM) | relative viability (MLN4924 + Pictilisib; first compound 0.4 µM) | relative viability (MLN4924 + Pictilisib; first compound 1.265 µM) | relative viability (MLN4924 + Pictilisib; first compound 4 µM)
1 | ChaGo-K-1 | 0.774 | 0.589 | 0.399 | 0.398 | 0.297 | 0.681 | 0.593 | 0.299 | 0.167 | 0.174 | 0.767 | 0.736 | 0.747 | 0.825 | 0.763 | 0.515 | 0.434 | 0.369 | 0.258 | 0.272
2 | EBC-1 | – | – | – | – | – | – | – | – | – | – | – | – | – | – | – | 0.488 | 0.372 | 0.245 | 0.11 | 0.162
3 | EKVX | 0.903 | 0.864 | – | 0.695 | 0.727 | 0.632 | 0.276 | 0.41 | 0.201 | 0.217 | 0.778 | 0.659 | 0.708 | 0.687 | 0.574 | 0.533 | 0.513 | 0.363 | 0.135 | 0.135
4 | EMC-BAC-2 | 1.22 | 1.15 | 1.15 | 1 | 0.751 | 0.39 | 0.392 | 0.236 | 0.179 | 0.279 | 0.427 | 0.4 | 0.442 | 0.451 | 0.499 | 0.242 | 0.569 | 0.213 | 0.155 | 0.192
5 | EPLC-272H | 0.308 | 0.297 | 0.266 | 0.387 | 0.226 | 0.195 | 0.184 | 0.098 | 0.0963 | 0.144 | 0.346 | 0.342 | 0.344 | 0.29 | 0.511 | 0.119 | 0.246 | 0.0811 | 0.135 | 0.135
6 | H3255 | 1.02 | 1.03 | 0.964 | 0.772 | 0.704 | 0.668 | 0.642 | 0.334 | 0.239 | 0.304 | 0.821 | 0.865 | 0.842 | 0.817 | 0.794 | 0.453 | 0.382 | 0.317 | 0.203 | 0.217
7 | HARA | 0.847 | 0.756 | 0.701 | 0.573 | 0.752 | 0.48 | 0.144 | 0.174 | 0.0809 | 0.0682 | 0.554 | 0.47 | 0.551 | 0.51 | 0.41 | 0.552 | 0.388 | 0.184 | 0.0759 | 0.0734
8 | HCC-15 | 0.434 | 0.302 | 0.177 | 0.306 | 0.42 | 0.643 | 0.444 | 0.289 | 0.112 | 0.106 | 0.887 | 0.756 | 0.843 | 0.816 | 0.714 | 0.475 | 0.343 | 0.172 | 0.0896 | 0.107
9 | HCC-44 | 1.16 | 0.755 | 0.406 | 0.305 | 0.31 | 1.04 | 0.731 | 0.726 | 0.415 | 0.376 | 1.15 | 1.15 | 1.05 | 1.08 | 1.15 | 0.641 | 0.474 | 0.0983 | 0.0904 | 0.127
